The values below come from ChEMBL document CHEMBL1201862, “PubChem BioAssay data set” (2004).

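The compound was tested at five concentrations on cells cultured in 96-well plates, with a 48-hour exposure period. The concentration for 50% growth inhibition is given as GI50.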 Activity calls are given as the source filed them. No stated cut-off is given here; in the data, active = GI50 up to about 1.1 µM and inactive = higher. A value given as a limit tells only on which side of the number the result lay.

Test systems include DLD-1; DMS-114; DMS-273; HOP-18; KM-20L2; LXFL 529; M19-MEL; RXF 631; XF498.
What all share (experiment): NCI tumour cell line growth inhibition, 48 h

For `O=C(NNC(=O)/C(=C/c1cccc([N+](=O)[O-])c1)NC(=O)c1ccccc1)Nc1ccc(Cl)cc1`, the GI50 in the test on DLD-1 was 12.6 µM (inactive); with DMS-114 it was 11.5 µM (inactive); in the test with DMS-273, 12.9 µM (inactive); in the test on HOP-18 it was 15.6 µM (inactive); with KM-20L2 it was 17.1 µM (inactive); in the test with LXFL 529, 10.6 µM (inactive). Besides, the figures for the GI50 in the test with M19-MEL, with RXF 631 and in the test on XF498 were 15.2 µM (inactive), 10.2 µM (inactive) and 9.53 µM (inactive), respectively.
For `O=C1C(O)=C(CC=C(Cl)Cl)C(=O)c2ccccc21`, the GI50 was 1.65 µM (inactive) with DLD-1; 18 µM (inactive) in the test with DMS-114; 2.04 µM (inactive) in the test with DMS-273; 25.4 µM (inactive) with HOP-18; 9.42 µM (inactive) with KM-20L2; 2.38 µM (inactive) in the test on LXFL 529. The GI50 in the test with M19-MEL was 7.64 µM (inactive); in the test on XF498, 32.3 µM (inactive).
In the case of `COC(=O)C1=C(C[S+]([O-])c2ccc([N+](=O)[O-])cc2[N+](=O)[O-])ON(C)C1c1ccccc1` (stereo unspecified), the GI50 with DLD-1 was 33.8 µM (inactive); with DMS-114, 27.7 µM (inactive); in the test on DMS-273, 36.2 µM (inactive); in the test with HOP-18, 22.6 µM (inactive); in the test with KM-20L2, 27.8 µM (inactive); in the test on LXFL 529 it was 30.1 µM (inactive). Moreover, the results for the GI50 in the test on M19-MEL, with RXF 631 and in the test with XF498 were 34.3 µM (inactive), 99.5 µM (inactive) and 37.3 µM (inactive), respectively.
With `COc1cc2c(cc1OC)C(Cc1cc(Br)c(OC)c(OC)c1)=[N+](C)CC2`, the GI50 in the test on DLD-1 is 80 µM (inactive); in the test on DMS-114, 2.52 µM (inactive); in the test on HOP-18 it was > 100 µM (inactive); with KM-20L2, 39.2 µM (inactive); in the test with LXFL 529 it was 9.73 µM (inactive); in the test with M19-MEL, 56.1 µM (inactive).
Regarding `COC(=O)c1c/c(=N\NC(=O)CC(=O)Nc2ccccc2Cl)c2ccccc2o1`, the GI50 in the test on DLD-1, in the test on DMS-114, in the test on DMS-273, with KM-20L2, in the test with LXFL 529 and in the test with RXF 631 was > 100 µM (inactive) each time. In addition, the GI50 with XF498 was > 100 µM (inactive).
With `N#Cc1ccccc1/C=N/O`, the GI50 was > 93.8 µM (inactive) in the test on DLD-1; > 59.4 µM (inactive) with DMS-114; > 41.4 µM (inactive) with DMS-273; > 100 µM (inactive) with HOP-18; > 100 µM (inactive) in the test with KM-20L2; > 91.4 µM (inactive) with LXFL 529. Also, the GI50 in the test on M19-MEL and in the test with XF498 was > 100 µM (inactive) in each case.
Take `Brc1ccccc1C1SCc2nc3ccccc3n21` (stereo unspecified): the GI50 is 12.7 µM (inactive) in the test on DLD-1; 16 µM (inactive) with DMS-114; < 0.01 µM (active) in the test with HOP-18; 15.1 µM (inactive) in the test on LXFL 529; 15 µM (inactive) with M19-MEL.
With `O=c1[nH]c(-c2ccccc2)nc2ccc(Cl)cc12`, the GI50 is > 100 µM (inactive) with DMS-114; 45.9 µM (inactive) in the test with DMS-273; 29.2 µM (inactive) in the test on KM-20L2; 29.4 µM (inactive) with LXFL 529; 54.3 µM (inactive) with M19-MEL.
For `CCCCCCCCCCCCCCCC(=O)OCC1OC(n2cc(F)c(=O)[nH]c2=O)C(N)C(O)C1O` (stereo unspecified), the GI50 with DLD-1 is 20.6 µM (inactive); in the test on DMS-114, 18.8 µM (inactive); in the test with HOP-18, 16.3 µM (inactive); in the test on KM-20L2, 17.2 µM (inactive); in the test on LXFL 529 it was 18.9 µM (inactive); with M19-MEL, 18.7 µM (inactive). Moreover, in the test with XF498, the GI50 is 18.9 µM (inactive).
Take `COc1cc(-c2nccc3cc(OC)c(OC)cc23)ccc1O`: the GI50 with DLD-1 is 76.4 µM (inactive); in the test on DMS-273, 43.5 µM (inactive); in the test with HOP-18 it was 21.1 µM (inactive); in the test with KM-20L2 it was 33.7 µM (inactive); in the test on LXFL 529, 29.7 µM (inactive); in the test with M19-MEL, > 100 µM (inactive). For the same molecule, the figures for the GI50 in the test on RXF 631 and with XF498 were 62.4 µM (inactive) and 25.4 µM (inactive), respectively.
`Fc1ccccc1C1CC(c2ccc3ccccc3c2)=Nc2ccccc2S1` (stereo unspecified): the GI50 in the test on DMS-273, in the test with HOP-18, with KM-20L2, with LXFL 529, with M19-MEL and in the test on XF498 was > 100 µM (inactive) in each case.
On to `CCCCCCCCC(=O)N(C)C1C2CN3CCC(O2)C13` (stereo unspecified), for which the GI50 in the test on DLD-1, in the test on DMS-114, with DMS-273, with HOP-18, in the test on KM-20L2 and with LXFL 529 was > 100 µM (inactive) each time. For the same molecule, the GI50 in the test with M19-MEL is > 100 µM (inactive).
On to `Cc1ccc(S(=O)(=O)NC(=O)NCCc2ccccc2)cc1`, for which the GI50 in the test on DLD-1 is > 100 µM (inactive); in the test with DMS-114, 62.1 µM (inactive); in the test on HOP-18, > 100 µM (inactive); with KM-20L2, > 100 µM (inactive); with LXFL 529, > 100 µM (inactive); in the test with M19-MEL, > 100 µM (inactive). Also, in the test on XF498, the GI50 is > 100 µM (inactive).
Regarding `OCC(O)C(O)C(O)C(O)c1nnn[nH]1` (stereo unspecified), the GI50 in the test with DLD-1, with DMS-114, in the test with DMS-273, in the test with LXFL 529, in the test with M19-MEL and with XF498 was > 100 µM (inactive) in each case.
As to `C[C@]12C=CC(=O)C=C1[C@@H](F)C[C@H]1[C@@H]3CC[C@](O)(C(=O)CO)[C@@]3(C)C[C@H](O)[C@@]12F`, the GI50 with DLD-1, in the test with DMS-114, with DMS-273, with KM-20L2, with LXFL 529 and in the test on M19-MEL was > 100 µM (inactive) each time. The GI50 in the test on XF498 is 97.7 µM (inactive).
Take `COCCCNC(=O)C1C(=O)N(CCCOC)C(=O)/C1=N\N` (stereo unspecified): the GI50 in the test on DLD-1, in the test on DMS-114, in the test on DMS-273, in the test on HOP-18, in the test on KM-20L2 and in the test on LXFL 529 was > 100 µM (inactive) in each case. Further, the GI50 in the test with M19-MEL and with RXF 631 was > 100 µM (inactive) each time.
`[O-][Cl+3]([O-])([O-])[O-].c1ccc(C[P+]2(c3ccccc3)CCCCC2)cc1`: the GI50 was > 100 µM (inactive) in the test on DLD-1; 48.5 µM (inactive) in the test on DMS-114; 79.3 µM (inactive) in the test on DMS-273; > 100 µM (inactive) with HOP-18; > 100 µM (inactive) in the test with KM-20L2; 38.3 µM (inactive) in the test with LXFL 529. The GI50 is 28.8 µM (inactive) with M19-MEL and 33.6 µM (inactive) in the test on XF498.
With `O=C(CSc1nnc(-c2ccc(/N=C\c3ccc(Cl)cc3)cc2)o1)Nc1ccc(Cl)cc1Cl`, the GI50 is 27.3 µM (inactive) with DLD-1; 34.3 µM (inactive) with DMS-273; 11.6 µM (inactive) with HOP-18; 37.2 µM (inactive) in the test on KM-20L2; 22.4 µM (inactive) in the test on LXFL 529; 31.7 µM (inactive) with M19-MEL. Further, the GI50 with XF498 was 17.7 µM (inactive).
`NCCCNCc1c2ccccc2c(CNCCCN)c2ccccc12`: the GI50 with DLD-1 is 34.6 µM (inactive); in the test on DMS-114, 14.3 µM (inactive); in the test on HOP-18, 25.1 µM (inactive); with KM-20L2 it was 17.9 µM (inactive); with LXFL 529, 11.4 µM (inactive); in the test with M19-MEL it was 14.7 µM (inactive).
Turning to `Cc1ccc(NC(=O)c2cc3cc(/N=N/c4ccccc4C(=O)O)ccc3oc2=O)cc1`, the GI50 in the test on DLD-1 is 41 µM (inactive); in the test on DMS-114 it was 24 µM (inactive); in the test with DMS-273, 37.4 µM (inactive); in the test with HOP-18 it was 32 µM (inactive); in the test with KM-20L2, 36 µM (inactive); in the test with XF498, 33 µM (inactive).
As for `Cc1cccc(NC(=O)CC2C(=O)Nc3ccccc3S2(=O)=O)c1C` (stereo unspecified), the GI50 in the test with DLD-1 was 49.7 µM (inactive); in the test with DMS-114, 20.3 µM (inactive); in the test with DMS-273, 25.8 µM (inactive); with HOP-18, 22.1 µM (inactive); in the test on KM-20L2, 39.4 µM (inactive); in the test on LXFL 529, 36.9 µM (inactive). Further, in the test with M19-MEL, the GI50 is 32.5 µM (inactive).
On to `C#CCNC(=O)N(CC#C)N=O`, for which the GI50 in the test with DLD-1, in the test on DMS-114, in the test on DMS-273, with HOP-18, in the test with KM-20L2 and in the test with LXFL 529 was > 100 µM (inactive) in each case. The GI50 in the test on M19-MEL and in the test on XF498 was > 100 µM (inactive) in each case.
`COc1cc(Br)c(/C=N\c2cccc3ccc(OS(=O)(=O)c4ccc([N+](=O)[O-])cc4)cc23)cc1OC`: the GI50 is > 100 µM (inactive) in the test with DLD-1, > 100 µM (inactive) with DMS-114, 12.2 µM (inactive) with LXFL 529 and > 100 µM (inactive) with M19-MEL.
Regarding `O=C(Nc1cccc(C(F)(F)F)c1)C(=O)C1NC(=S)NC1=O` (stereo unspecified), the GI50 with DLD-1, with DMS-114, with DMS-273, in the test with HOP-18, in the test with KM-20L2 and in the test with LXFL 529 was > 100 µM (inactive) each time. Besides, the GI50 in the test on M19-MEL is > 100 µM (inactive).
As to `CC(O)C(C(=O)O)N(CC1(O)OCC(O)C(O)C1O)N=O` (stereo unspecified), the GI50 in the test on DLD-1, in the test on DMS-114, in the test with DMS-273, with KM-20L2, with LXFL 529 and in the test on M19-MEL was > 100 µM (inactive) each time. Moreover, the GI50 in the test on RXF 631 and in the test on XF498 was > 100 µM (inactive) in each case.
`O=C(OCc1ccccc1C1CSCSC1)c1cc(C(=O)OCc2ccccc2C2CSCSC2)c(C(=O)OCc2ccccc2C2CSCSC2)cc1C(=O)OCc1ccccc1C1CSCSC1`: the GI50 in the test with DLD-1, with DMS-114, with DMS-273, with HOP-18, with KM-20L2 and in the test on LXFL 529 was > 100 µM (inactive) throughout. The GI50 with M19-MEL is > 100 µM (inactive).
